Where two headings read alike, the source gives them in different places.
Key:
BTK^WT = BTK^WT (Homo sapiens (Human), UniProt Q06187); assay: BTK^WT binding affinity (TR-FRET, LanthaScreen)
Procedure: BTK^WT binding affinity of each compound tested was determined using a time-resolved fluorescence resonance energy transfer (TR-FRET) methodology. 2.5 nM Recombinant BTK^WT kinase, varying concentrations of inhibitor, 2 nM LanthaScreen™ Eu anti-His Antibody and 15 nM Kinase Tracer 236 was incubated in 1× LanthaScreen™ Kinase Buffer A for 5 h. Recombinant BTK kinase and all LanthaScreen™ components were purchased from Invitrogen. Measurements were performed in a reaction volume of 30 μL using half-area 96-well assay plates. The TR-FRET signal was read on a plate reader with an excitation wavelength of 340 nm and detection wavelengths of 615 and 665 nm. Binding affinity was determined for each compound by measuring TR-FRET signal at various concentrations of compound and plotting the relative fluorescence units against the inhibitor concentration to estimate the IC50 from log [Inhibitor] vs response using the Variable Slope model in Graphpad prism from Graphpad software (SanDiego, Calif.).

BTK^C481S = BTK^C481S (Homo sapiens (Human), UniProt Q06187, C481S); assay: BTK^C481S binding affinity (TR-FRET, LanthaScreen); settings: 5 h incubation
Chain of BTK^C481S (Q06187 whole entry C481S): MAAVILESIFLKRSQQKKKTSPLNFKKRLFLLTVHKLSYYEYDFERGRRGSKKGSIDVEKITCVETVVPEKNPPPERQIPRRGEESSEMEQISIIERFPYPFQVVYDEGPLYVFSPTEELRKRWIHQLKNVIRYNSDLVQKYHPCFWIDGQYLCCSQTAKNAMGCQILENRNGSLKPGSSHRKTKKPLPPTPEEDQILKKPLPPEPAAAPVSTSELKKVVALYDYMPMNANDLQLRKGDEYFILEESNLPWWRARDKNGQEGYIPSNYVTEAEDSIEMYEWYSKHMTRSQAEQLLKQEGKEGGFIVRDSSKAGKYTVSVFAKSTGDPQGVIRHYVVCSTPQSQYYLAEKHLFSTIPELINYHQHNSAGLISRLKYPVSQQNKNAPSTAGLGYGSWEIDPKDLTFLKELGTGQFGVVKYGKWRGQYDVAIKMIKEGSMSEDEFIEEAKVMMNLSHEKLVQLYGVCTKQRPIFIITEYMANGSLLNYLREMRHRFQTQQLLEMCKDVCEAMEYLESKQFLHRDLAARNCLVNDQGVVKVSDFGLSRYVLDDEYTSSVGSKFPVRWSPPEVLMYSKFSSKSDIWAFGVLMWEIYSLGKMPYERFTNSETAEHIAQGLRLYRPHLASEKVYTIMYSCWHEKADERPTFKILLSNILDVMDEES
Procedure: BTK^C481S binding affinity of each compound tested was determined using a time-resolved fluorescence resonance energy transfer (TR-FRET) methodology. 5 nM Recombinant […] kinase, varying concentrations of inhibitor, 2 nM LanthaScreen™ Eu anti-His Antibody and 30 nM Kinase Tracer 236 was incubated in 1× LanthaScreen™ Kinase Buffer A for 5 h. Recombinant BTK^C481S kinase was purchased from SignalChem and all LanthaScreen™ components were purchased from Invitrogen. Measurements were performed in a reaction volume of 30 μL using half-area 96-well assay plates. The TR-FRET signal was read on a plate reader with an excitation wavelength of 340 nm and detection wavelengths of 615 and 665 nm. Binding affinity was determined for each compound by measuring TR-FRET signal at various concentrations of compound and plotting the relative fluorescence units against the inhibitor concentration to estimate the IC50 from log [Inhibitor] vs response using the Variable Slope model in Graphpad prism from Graphpad software (SanDiego, Calif.).

EGFR = EGFR (Homo sapiens (Human), UniProt P00533); assay: EGFR binding affinity (TR-FRET, LanthaScreen); settings: 5 h incubation
Chain of EGFR (P00533 25-1210): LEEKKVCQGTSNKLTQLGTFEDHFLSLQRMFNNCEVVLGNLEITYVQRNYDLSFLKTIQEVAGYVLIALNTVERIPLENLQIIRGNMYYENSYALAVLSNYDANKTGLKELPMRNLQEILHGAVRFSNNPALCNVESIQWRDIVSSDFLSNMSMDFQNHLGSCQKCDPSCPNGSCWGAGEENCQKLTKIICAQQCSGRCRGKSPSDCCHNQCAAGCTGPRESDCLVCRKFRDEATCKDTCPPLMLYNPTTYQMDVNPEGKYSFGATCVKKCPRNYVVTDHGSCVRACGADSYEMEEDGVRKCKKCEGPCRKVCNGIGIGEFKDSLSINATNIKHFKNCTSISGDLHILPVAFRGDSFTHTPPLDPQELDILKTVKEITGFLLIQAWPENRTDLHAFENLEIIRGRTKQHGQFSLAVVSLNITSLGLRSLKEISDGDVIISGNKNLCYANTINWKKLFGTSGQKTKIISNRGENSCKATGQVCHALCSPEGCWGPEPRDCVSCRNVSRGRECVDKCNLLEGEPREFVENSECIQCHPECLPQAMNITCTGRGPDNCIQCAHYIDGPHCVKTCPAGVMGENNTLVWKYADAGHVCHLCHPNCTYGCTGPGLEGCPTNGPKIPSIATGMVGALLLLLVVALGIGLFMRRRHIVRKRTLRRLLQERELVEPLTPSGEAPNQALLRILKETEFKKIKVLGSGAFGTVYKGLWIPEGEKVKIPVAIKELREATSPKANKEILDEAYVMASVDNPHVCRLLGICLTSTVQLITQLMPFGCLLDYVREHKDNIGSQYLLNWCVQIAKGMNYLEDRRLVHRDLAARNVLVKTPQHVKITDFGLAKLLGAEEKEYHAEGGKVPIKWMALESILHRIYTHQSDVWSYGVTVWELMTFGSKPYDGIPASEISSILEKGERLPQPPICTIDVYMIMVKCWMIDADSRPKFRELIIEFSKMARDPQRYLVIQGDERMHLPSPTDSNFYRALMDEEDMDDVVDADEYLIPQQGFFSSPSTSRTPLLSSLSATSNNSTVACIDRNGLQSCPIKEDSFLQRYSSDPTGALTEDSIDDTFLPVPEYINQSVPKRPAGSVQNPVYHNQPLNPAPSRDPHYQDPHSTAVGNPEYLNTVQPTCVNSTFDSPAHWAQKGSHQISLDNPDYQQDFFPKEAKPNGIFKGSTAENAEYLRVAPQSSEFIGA
Procedure: EGFR binding affinity was determined using a time-resolved fluorescence resonance energy transfer (TR-FRET) methodology. 2.5 nM Recombinant EGFR, varying concentrations of inhibitor, 2 nM LanthaScreen™ Eu anti-GST Antibody and 3 nM Kinase Tracer 199 was incubated in 1× LanthaScreen™ Kinase Buffer A for 5 h. Recombinant EGFR and all LanthaScreen™ components were purchased from Invitrogen. Measurements were performed in a reaction volume of 30 μL using half-area 96-well assay plates. The TR-FRET signal was read on a plate reader with an excitation wavelength of 340 nm and detection wavelengths of 615 and 665 nm. Binding affinity was determined for each compound by measuring TR-FRET signal at various concentrations of compound and plotting the relative fluorescence units against the inhibitor concentration to estimate the IC50 from log [Inhibitor] vs response using the Variable Slope model in Graphpad prism from Graphpad software (SanDiego, Calif.).

[1] = tested on: OCI-Ly10 human DLBCL cells; assay: OCI-Ly10 anti-proliferative activity (Resazurin, 72 h); assay type: cell-based; settings: Homo sapiens, OCI-Ly10, 72 h, read-out: Proliferation OCI-Ly10-IC50
Procedure: Compounds were assayed for effects on the growth of OCI-Ly10 human DLBCL cells that are dependent on NFκB signalling. OCI-Ly10 cells were grown in suspension in T225 flasks, centrifuged and re-suspended in 2.5% FBS containing media. Cells were then plated at 7.5×10^3 cells per well in 96-well plates in varying concentrations of compound and incubated for 72 h at 37° C. An additional plate of cells to be used as the Day 0 read was seeded without compound addition, Resazurin was added to each well, incubated for 5 h and the fluorescence measured at 590 nm. After 72 h of compound treatment, Resazurin was added to each well of the compound treated plates, incubated for 5 h and the fluorescence measured at 590 nm. The IC50 was then calculated by subtracting the average Day 0 value from each well value from the treated plates, each treatment was then calculated as a percentage of the DMSO control and the percentages plotted against the inhibitor concentration to estimate the IC50 from log [Inhibitor] vs response using the Variable Slope model in Graphpad prism from Graphpad software (SanDiego, Calif.).

[2] = TR-FRET binding, 5 h incubation, read-out: BTK^WT IC50
[3] = Table 6, numeric values, read-out: BTK Binding IC50

Chain of BTK^WT (Q06187 whole entry): as the sequence (Q06187 whole entry C481S) above, with S481C counted along it

Row | SMILES | IC50 (BTK^WT; [2]) | IC50 (BTK^C481S) | IC50 (EGFR) | IC50 [1] | IC50 (BTK^WT; [3])
1 | COc1ccccc1C(=O)NCc1ccc(-c2nn([C@H]3CC[C@@H](C(=O)N(C)C)CC3)c3ncnc(N)c23)cc1 (single isomer, unassigned; isomer 2) [33-isomer 2] | ≤ 0.01 µM | ≤ 0.01 µM | – | – | –
2 | Nc1ncnc2c1c(-c1ccc(CNC(=O)c3ccccc3F)cc1)nn2C1CCCC1 [Example 2, N-[[4-(4-amino-1-cyclopentyl-pyrazolo[3,4-d]pyrimidin-3-yl)phenyl]methyl]-2-fluoro-benzamide] | – | – | 0.01 to 0.1 µM | 1 to 10 µM | –
3 | Nc1ncnc2c1c(-c1ccc(CNC(=O)c3ccccc3OC(F)(F)F)cc1)nn2C1CCCC1 [Example 6, N-[[4-(4-Amino-1-cyclopentyl-pyrazolo[3,4-d]pyrimidin-3-yl)phenyl]methyl]-2-(trifluoromethoxy)benzamide] | 0.1 to 1 µM | – | 0.1 to 1 µM | – | –
4 | COc1cc(Cl)ccc1C(=O)NCc1ccc(-c2nn(C3CCCC3)c3ncnc(N)c23)cc1 [Example 9, N-[[4-(4-amino-1-cyclopentyl-pyrazolo[3,4-d]pyrimidin-3-yl)phenyl]methyl]-4-chloro-2-methoxy-benzamide] | – | – | > 10 µM | 0.1 to 1 µM | –
5 | COc1ccccc1C(=O)N(C)Cc1ccc(-c2nn(C3CCCC3)c3ncnc(N)c23)cc1 [Example 17, N-[[4-(4-Amino-1-cyclopentyl-pyrazolo[3,4-d]pyrimidin-3-yl)phenyl]methyl]-2-methoxy-N-methyl-benzamide] | – | – | 1 to 10 µM | – | –
6 | COc1ccccc1C(=O)NCc1ccc(-c2nn(C3CCC4(CC3)OCCO4)c3ncnc(N)c23)cc1 [Example 19, N-[[4-[4-amino-1-(1,4-dioxaspiro[4.5]decan-8-yl)pyrazolo[3,4-d]pyrimidin-3-yl]phenyl]methyl]-2-methoxy-benzamide] | ≤ 0.01 µM | ≤ 0.01 µM | – | – | –
7 | N#Cc1cccc(C(=O)NCc2ccc(-c3nn(C4CCCC4)c4ncnc(N)c34)cc2)c1 [Example 20, N-[[4-(4-amino-1-cyclopentyl-pyrazolo[3,4-d]pyrimidin-3-yl)phenyl]methyl]-3-cyano-benzamide] | – | – | 1 to 10 µM | – | –
8 | COc1c(C)cccc1C(=O)NCc1ccc(-c2nn(C3CCCC3)c3ncnc(N)c23)cc1 [Example 22, N-[[4-(4-amino-1-cyclopentyl-pyrazolo[3,4-d]pyrimidin-3-yl)phenyl]methyl]-2-methoxy-3-methyl-benzamide] | – | – | 1 to 10 µM | – | –
9 | COc1ccccc1C(=O)NCc1ccc(-c2nn(C3CCC(C(=O)O)CC3)c3ncnc(N)c23)cc1 (stereo not shown) [Example 30, 4-[4-amino-3-[4-[[(2-methoxybenzoyl)amino]methyl]phenyl]pyrazolo[3,4-d]pyrimidin-1-yl]cyclohexanecarboxylic acid] | ≤ 0.01 µM | ≤ 0.01 µM | 0.1 to 1 µM | – | 0.0014 µM
10 | COc1ccccc1C(=O)NCc1ccc(-c2nn([C@@H]3CCc4ccccc43)c3ncnc(N)c23)cc1 [Example 56, N-[(4-{4-amino-1-[(1R)-2,3-dihydro-1H-inden-1-yl]-1H-pyrazolo[3,4-d]pyrimidin-3-yl}phenyl)methyl]-2-methoxybenzamide] | ≤ 0.01 µM | ≤ 0.01 µM | – | – | 0.0012 µM
11 | COc1ccccc1C(=O)NC1(c2ccc(-c3nn(C4CCCC4)c4ncnc(N)c34)cc2)CC1 [Example 67, N-[1-[4-(4-amino-1-cyclopentyl-pyrazolo[3,4-d]pyrimidin-3-yl)phenyl]cyclopropyl]-2-methoxy-benzamide] | 1 to 10 µM | 1 to 10 µM | 1 to 10 µM | – | –
12 | COc1cc2ccccc2cc1C(=O)NCc1ccc(-c2nn(C3CCCC3)c3ncnc(N)c23)cc1 [Example 71, N-[[4-(4-amino-1-cyclopentyl-pyrazolo[3,4-d]pyrimidin-3-yl)phenyl]methyl]-3-methoxy-naphthalene-2-carboxamide] | 0.1 to 1 µM | 0.1 to 1 µM | – | – | –
13 | Nc1ncnc2c1c(-c1ccc(CNC(=O)c3ccc4ccccc4c3)cc1)nn2C1CCCC1 [Example 72, N-[[4-(4-amino-1-cyclopentyl-pyrazolo[3,4-d]pyrimidin-3-yl)phenyl]methyl]naphthalene-2-carboxamide] | 0.1 to 1 µM | – | – | – | –
14 | COc1ccccc1C(=O)NCc1c(F)cc(-c2nn(C3CCCC3)c3ncnc(N)c23)cc1F [Example 73, N-[[4-(4-amino-1-cyclopentyl-pyrazolo[3,4-d]pyrimidin-3-yl)-2,6-difluoro-phenyl]methyl]-2-methoxy-benzamide] | 0.1 to 1 µM | 0.01 to 0.1 µM | 1 to 10 µM | – | –
15 | COc1ccccc1C(=O)NCc1ccc(-c2nn(C(C)C)c3ncnc(N)c23)cc1 [Example 78, N-[[4-(4-amino-1-isopropyl-pyrazolo[3,4-d]pyrimidin-3-yl)phenyl]methyl]-2-methoxy-benzamide] | ≤ 0.01 µM | ≤ 0.01 µM | 1 to 10 µM | – | –
16 | COc1ccccc1C(=O)NCc1ccc(-c2nn(C3CCCC3)c3ncnc(N)c23)c(C)c1 [Example 79, N-[[4-(4-amino-1-cyclopentyl-pyrazolo[3,4-d]pyrimidin-3-yl)-3-methyl-phenyl]methyl]-2-methoxy-benzamide] | ≤ 0.01 µM | ≤ 0.01 µM | 1 to 10 µM | – | –
17 | CC(C)(C)n1nc(-c2ccc(CNC(=O)c3cc4ccccc4o3)cc2)c2c(N)ncnc21 [Example 81, N-[[4-(4-amino-1-tert-butyl-pyrazolo[3,4-d]pyrimidin-3-yl)phenyl]methyl]benzofuran-2-carboxamide] | 1 to 10 µM | – | – | 1 to 10 µM | –

Next, values leading:

Row | IC50 (BTK^WT; [2]) | IC50 (BTK^C481S) | IC50 (EGFR) | IC50 [1] | IC50 (BTK^WT; [3]) | SMILES
18 | > 10 µM | – | > 10 µM | – | – | Nc1ncnc2c1c(-c1ccc(CNC(=O)c3nc4ccccc4s3)cc1)nn2C1CCCC1 [Example 82, N-[[4-(4-amino-1-cyclopentyl-pyrazolo[3,4-d]pyrimidin-3-yl)phenyl]methyl]-1,3-benzothiazole-2-carboxamide]
19 | > 10 µM | – | – | – | – | Nc1ncnc2c1c(-c1ccc(CNC(=O)c3cc4ccccc4o3)cc1)nn2C1CCCC1 [Example 83, N-[[4-(4-amino-1-cyclopentyl-pyrazolo[3,4-d]pyrimidin-3-yl)phenyl]methyl]benzofuran-2-carboxamide]
20 | 1 to 10 µM | – | – | – | – | Nc1ncnc2c1c(-c1ccc(CNC(=O)c3cc4ccccc4s3)cc1)nn2C1CCCC1 [Example 84, N-[[4-(4-amino-1-cyclopentyl-pyrazolo[3,4-d]pyrimidin-3-yl)phenyl]methyl]benzothiophene-2-carboxamide]
21 | 1 to 10 µM | – | – | – | – | Nc1ncnc2c1c(-c1ccc(CNC(=O)c3ccc4ccccc4n3)cc1)nn2C1CCCC1 [Example 85, N-[[4-(4-amino-1-cyclopentyl-pyrazolo[3,4-d]pyrimidin-3-yl)phenyl]methyl]quinoline-2-carboxamide]
22 | > 10 µM | > 10 µM | – | – | – | Nc1ncnc2c1c(-c1ccc(CNC(=O)C3CNc4ccccc4O3)cc1)nn2C1CCCC1 (stereo not shown) [Example 86, N-[[4-(4-Amino-1-cyclopentyl-pyrazolo[3,4-d]pyrimidin-3-yl)phenyl]methyl]-3,4-dihydro-2H-1,4-benzoxazine-2-carboxamide]
23 | 1 to 10 µM | – | – | – | – | Nc1ncnc2c1c(-c1ccc(CNC(=O)c3cccc4ncoc34)cc1)nn2C1CCCC1 [Example 87, N-[[4-(4-amino-1-cyclopentyl-pyrazolo[3,4-d]pyrimidin-3-yl)phenyl]methyl]-1,3-benzoxazole-7-carboxamide]
24 | – | – | 1 to 10 µM | – | – | Nc1ncnc2c1c(-c1ccc(CNC(=O)c3cc4ccccc4[nH]3)cc1)nn2C1CCCC1 [Example 88, N-[[4-(4-amino-1-cyclopentyl-pyrazolo[3,4-d]pyrimidin-3-yl)phenyl]methyl]-1H-indole-2-carboxamide]
